Common to all, as to assay: Protocol A: diffusion on agar in Petri dishes
What all share (type): cell-based

The subject of experiment [1] is Escherichia coli. On the procedure:
(§1) The culture medium used was a mixture of 21 g/L of Muller-Hinton broth and 10 g/L of agar in water. This mixture was stirred and then left to boil. Next, a step of autoclaving of this mixture for 30 minutes was necessary in order to sterilize it before any manipulation. This culture medium was poured, while hot, into Petri dishes and then left to cool.
(§2) 5 milligrams of RhamOC4 were dissolved in 1 mL of DMSO. Twofold serial dilution with DMSO was then performed starting with the stock solution, so as to obtain the concentrations 2.5 g·L^−1, 1.25 g·L^−1, 0.625 g·L^−1 and 0.3125 g·L^−1.
(§3) The bacterial strains used were Pseudomonas aeruginosa, Escherichia coli, Enterococcus faecium and Staphylococcus aureus, in addition to the fungal strain Candida albicans. 10^6 bacteria were collected and then transferred into a 0.9% NaCl solution. Each Petri dish, containing the Muller-Hinton medium, was inoculated with a different bacterial suspension.
(§4) After having left the bacterial suspensions to dry on the agar, 10 μL of the test solution (RhamOC4), at various concentrations, were deposited on the surface of the agar inoculated with the bacterial suspension. 10 μL of DMSO were placed in each Petri dish as negative control.
(§5) The positive controls used were discs soaked with ampicillin for Escherichia coli and Enterococcus faecium, ceftazidim discs for Pseudomonas aeruginosa and vancomycin discs for Staphylococcus aureus.
(§6) After drying, the Petri dishes were finally incubated at 37° C. in an oven for 24 hours. The antibacterial activity was evaluated by measuring the clarification zone in mm around the place of deposition of the various concentrations of the test RhamOC4 solution.

Experiment [2] relates to Enterococcus faecium. On the procedure:
as §1, §2, §3, §4, §5, §6

Experiment [3] concerns Staphylococcus aureus. On the procedure:
as §1, §2, §3, §4, §5, §6

The subject of experiment [4] is Pseudomonas aeruginosa. The method, then:
as §1, §2, §3, §4, §5, §6

Experiment [5] deals with Candida albicans. The method, then: as §1, §2, §3, §4, §6
[6] abbreviates: antibiotic disc, concentration not given.

Molecules are shown by their SMILES.

Consider `CC1(C)S[C@@H]2[C@H](NC(=O)[C@H](N)c3ccccc3)C(=O)N2[C@H]1C(=O)O` [Ampicillin, ampicillin, reference compound], for which the “Clarification zone, E. coli, positive control” value in experiment [1] (setting [6]) is recorded as “(22 mm)”. Also, the “Clarification zone, E. faecium, positive control” value in experiment [2] (setting [6]) was “(26 mm)”.
In the case of `CN[C@H](CC(C)C)C(=O)N[C@H]1C(=O)N[C@@H](CC(N)=O)C(=O)N[C@H]2C(=O)N[C@H]3C(=O)N[C@H](C(=O)N[C@H](C(=O)O)c4cc(O)cc(O)c4-c4cc3ccc4O)[C@H](O)c3ccc(c(Cl)c3)Oc3cc2cc(c3O[C@@H]2O[C@H](CO)[C@@H](O)[C@H](O)[C@H]2O[C@H]2C[C@](C)(N)[C@H](O)[C@H](C)O2)Oc2ccc(cc2Cl)[C@H]1O` [Vancomycin, vancomycin, reference compound], the “Clarification zone, S. aureus, positive control” value in experiment [3] (setting [6]) was “(19 mm)”.
In the case of `CCCCO[C@@H]1O[C@@H](C)[C@H](O)[C@@H](O)[C@H]1O` [RhamOC4, n-butyl α-L-rhamnopyranoside], the zone of inhibition at 0.3125 mg/mL in experiment [4] (Pseudomonas aeruginosa, 0.3125 mg·mL^−1, 10 μL, 24 hours 37° C., read-out: Clarification zone, P. aeruginosa) was 0 mm; in experiment [1] (Escherichia coli, 0.3125 mg·mL^−1, 10 μL, 24 hours 37° C., read-out: Clarification zone, E. coli), 0 mm; in experiment [2] (Enterococcus faecium, 0.3125 mg·mL^−1, 10 μL, 24 hours 37° C., read-out: Clarification zone, E. faecium) it was 0 mm; in experiment [3] (Staphylococcus aureus, 0.3125 mg·mL^−1, 10 μL, 24 hours 37° C., read-out: Clarification zone, S. aureus), 0 mm; in experiment [5] (Candida albicans, 0.3125 mg·mL^−1, 10 μL, 24 hours 37° C., read-out: Clarification zone, C. albicans) it was 0 mm. Moreover, the zone of inhibition at 0.625 mg/mL worked out at 0 mm in experiment [4] (Pseudomonas aeruginosa, 0.625 mg·mL^−1, 10 μL, 24 hours 37° C., read-out: Clarification zone, P. aeruginosa); 0 mm in experiment [1] (Escherichia coli, 0.625 mg·mL^−1, 10 μL, 24 hours 37° C., read-out: Clarification zone, E. coli); 0 mm in experiment [2] (Enterococcus faecium, 0.625 mg·mL^−1, 10 μL, 24 hours 37° C., read-out: Clarification zone, E. faecium); 0 mm in experiment [3] (Staphylococcus aureus, 0.625 mg·mL^−1, 10 μL, 24 hours 37° C., read-out: Clarification zone, S. aureus); 0 mm in experiment [5] (Candida albicans, 0.625 mg·mL^−1, 10 μL, 24 hours 37° C., read-out: Clarification zone, C. albicans). For the same compound, the zone of inhibition at 1.25 mg/mL in experiment [4] (Pseudomonas aeruginosa, 1.25 mg·mL^−1, 10 μL, 24 hours 37° C., read-out: Clarification zone, P. aeruginosa) was found to be 0 mm; in experiment [1] (Escherichia coli, 1.25 mg·mL^−1, 10 μL, 24 hours 37° C., read-out: Clarification zone, E. coli), 0 mm; in experiment [2] (Enterococcus faecium, 1.25 mg·mL^−1, 10 μL, 24 hours 37° C., read-out: Clarification zone, E. faecium), 0 mm; in experiment [3] (Staphylococcus aureus, 1.25 mg·mL^−1, 10 μL, 24 hours 37° C., read-out: Clarification zone, S. aureus), 5 mm; in experiment [5] (Candida albicans, 1.25 mg·mL^−1, 10 μL, 24 hours 37° C., read-out: Clarification zone, C. albicans), 5 mm. The zone of inhibition at 2.5 mg/mL came out at 0 mm in experiment [4] (Pseudomonas aeruginosa, 2.5 mg·mL^−1, 10 μL, 24 hours 37° C., read-out: Clarification zone, P. aeruginosa); 4 mm in experiment [1] (Escherichia coli, 2.5 mg·mL^−1, 10 μL, 24 hours 37° C., read-out: Clarification zone, E. coli); 4 mm in experiment [2] (Enterococcus faecium, 2.5 mg·mL^−1, 10 μL, 24 hours 37° C., read-out: Clarification zone, E. faecium); 5 mm in experiment [3] (Staphylococcus aureus, 2.5 mg·mL^−1, 10 μL, 24 hours 37° C., read-out: Clarification zone, S. aureus); 14 mm in experiment [5] (Candida albicans, 2.5 mg·mL^−1, 10 μL, 24 hours 37° C., read-out: Clarification zone, C. albicans). Further, the zone of inhibition at 5 mg/mL in experiment [4] (Pseudomonas aeruginosa, 5 mg·mL^−1, 10 μL, 24 hours 37° C., read-out: Clarification zone, P. aeruginosa) came out at 4 mm; in experiment [1] (Escherichia coli, 5 mg·mL^−1, 10 μL, 24 hours 37° C., read-out: Clarification zone, E. coli) it was 9 mm; in experiment [3] (Staphylococcus aureus, 5 mg·mL^−1, 10 μL, 24 hours 37° C., read-out: Clarification zone, S. aureus) it was 10.5 mm; in experiment [5] (Candida albicans, 5 mg·mL^−1, 10 μL, 24 hours 37° C., read-out: Clarification zone, C. albicans), 18 mm. The “Inhibitory power on growth of Pseudomonas aeruginosa” value in experiment [4] (summary of agar diffusion) was “poor inhibitory power”. For the same compound, the zone of inhibition at 5 µg/mL in experiment [2] (Enterococcus faecium, 5 mg·mL^−1, 10 μL, 24 hours 37° C., read-out: Clarification zone, E. faecium) stood at 6 mm. The “Capacity to inhibit growth of Staphylococcus aureus” value in experiment [3] (summary of agar diffusion) is reported as “very good capacity to inhibit the growth”. The “Capacity to inhibit growth of Candida albicans” value in experiment [5] (summary of agar diffusion) is recorded as “very good capacity to inhibit the growth”.
Regarding `CC(C)(O/N=C(\C(=O)N[C@@H]1C(=O)N2C(C(=O)[O-])=C(C[n+]3ccccc3)CS[C@H]12)c1csc(N)n1)C(=O)O` [Ceftazidim, ceftazidim, reference compound], the “Clarification zone, P. aeruginosa, positive control” value in experiment [4] (setting [6]) was “(28 mm)”.

The values are drawn from patent publication US20200045962A1, “METHOD FOR PREPARING SURFACTANT COMPOSITIONS COMPRISING ALKYL LIDURONAMIDES D-GLUCURONAMIDES AND L-RHAMNOSIDES FROM ULVANS” (ÉCOLE NATIONALE SUPÉRIEURE DE CHIMIE, priority 2016, published 2020).
